Literature values as cited in US11260028B2, “Nanosome formulations of aprepitant and methods and applications thereof” (ForDoz Pharma Corp., priority 2017, dated 2022).

Compound: C[C@@H](O[C@H]1OCCN(Cc2n[nH]c(=O)[nH]2)[C@H]1c1ccc(F)cc1)c1cc(C(F)(F)F)cc(C(F)(F)F)c1 [aprepitant, 5-[[(2R,3S)-2-[(1R)-1-[3,5-bis(trifluoromethyl)phenyl]ethoxy]-3-(4-fluorophenyl)-4-morpholinyl]methyl]-1,2-dihydro-3H-1,2,4-triazol-3-one]
- water solubility: poor
